SMILES strings stand for the structures.

Series [1] in a line: Stability in human plasma. It is filed as in vitro ADME. Conditions: 2 μM peptidomimetic, pooled human plasma, 37° C.; for half-life at 2 μM: pH 7.8, read-out: half-life (t1/2) when incubated with human plasma. How it is done:
(§1) Reactions were terminated by the addition of TFA/H2O (15 mL, 10% (v/v)). […] The column was equilibrated with TFA/H20, at a flow rate of 1 mL/min.

The nature of series [2]: Stability in simulated gastric fluid. Format: in vitro ADME. The settings on record: 2 μM peptidomimetic, simulated gastric fluid pH 1.5, 37° C.; for half-life at 2 μM: read-out: half-life (t1/2) when incubated with simulated gastric fluid. The protocol: as §1
Another series has as its target T1, Human GLP-1 receptor (Homo sapiens, UniProt P43220).
T1 construct: The full-length cDNA was cloned in pcDNA3.1(+); expressed in transfected cells
The series is described as follows: In vitro Human GLP-1 R agonist activity (cyclic AMP determination) in CHO/human GLP1R cells. Format: cell-based. How it is done: The novel peptidomimetics were screened for Human GLP-1 receptor (HGLP-1 R) agonist activity (in vitro), using the cAMP cell-based assay, in stably transfected CHO/human GLP1R cells. […] CHO cells were grown in Ham's F12 medium containing L-Glutamine (2 mM), HEPES (25 mM), NaHCO3 (1.1 g/L) and supplemented with NewBorn Calf Serum (NBCS; 10%), Penicillin (50 U/ml (v/v)) and Streptomycin (50 ug/ml (v/v)). Cells were split every 3 days 1:8.
The cDNA encoding the human GLP-1 receptor was isolated by RT-PCR according to standard protocol. The full-length cDNA was cloned in pcDNA3.1(+). […] Clones expressing the receptor were generated by G418 (800 μg/ml active, Sigma) selection. The stable clones were thereafter maintained at 500 ug/ml (G418). The selected clone was used between passages 9-25 for cAMP assays.
The trypsin was inactivated using Ham's F12 medium containing 10% NBCS and the cells were suspended in 2 ml of complete medium. […] The medium was aspirated off from the 12 well plate and the cells were washed once using Ham's F12 (plain). […] The cells were incubated with the test compounds for 30 min in humidified atmosphere and 37° C. After the incubation, the medium was removed and cells were washed once with plain Ham's F12. Subsequently, the cells were lysed by adding 500 ul of ice cold 0.1 N HCl to each well and shaking for 30 minutes at 200 rpm. The cells were then scrapped, the lysate was collected in micro centrifuge tubes and centrifuged at 12000 rpm for 10 min to remove the debris. 300 ul of supernatant from each micro-centrifuge tube was then removed into a glass tube and dried under N2 for 30 min, for cAMP estimation. The total cAMP was estimated from the sample according to the manufacturer's protocol using Cyclic AMP immunoassay kit (R&D systems, Minneapolis. MN). The remaining supernatant is used to determine the protein concentration using micro BCA (Sigma). Data is calculated as percent of control (Vehicle: water) and expressed as Mean±SD.

The nature of series [3]: Stability in liver microsomes. Format: in vitro ADME. The settings on record: 2 μM peptidomimetic, human liver microsomes, 37° C. The protocol:
as §1
(Microsomes from liver hold many membrane-bound enzymes, among them those of drug oxidation.)

The target of a further series is DPP IV (Homo sapiens, UniProt P27487). The series is described as follows: Stability against DPP IV enzyme. Format: in vitro ADME. The settings on record: 37° C.; for % degradation of peptidomimetics in 24 h when incubated with DPP-IV enzyme: 2 μM peptidomimetic; for half-life at 2 μM: DPP IV enzyme, pH 7.8, 2 μM peptidomimetic, read-out: half-life (t1/2) when incubated with DPP-IV enzyme. How it is done:
as §1

Series [4] can be described thus: Stability in simulated intestinal fluid. The settings on record: 2 μM peptidomimetic, simulated intestinal fluid pH 7.5, 37° C.; for half-life at 2 μM: read-out: half-life (t1/2) when incubated with simulated intestinal fluid. It is filed as in vitro ADME. The protocol:
as §1

Sequence of DPP IV (P27487 whole entry, species assumed): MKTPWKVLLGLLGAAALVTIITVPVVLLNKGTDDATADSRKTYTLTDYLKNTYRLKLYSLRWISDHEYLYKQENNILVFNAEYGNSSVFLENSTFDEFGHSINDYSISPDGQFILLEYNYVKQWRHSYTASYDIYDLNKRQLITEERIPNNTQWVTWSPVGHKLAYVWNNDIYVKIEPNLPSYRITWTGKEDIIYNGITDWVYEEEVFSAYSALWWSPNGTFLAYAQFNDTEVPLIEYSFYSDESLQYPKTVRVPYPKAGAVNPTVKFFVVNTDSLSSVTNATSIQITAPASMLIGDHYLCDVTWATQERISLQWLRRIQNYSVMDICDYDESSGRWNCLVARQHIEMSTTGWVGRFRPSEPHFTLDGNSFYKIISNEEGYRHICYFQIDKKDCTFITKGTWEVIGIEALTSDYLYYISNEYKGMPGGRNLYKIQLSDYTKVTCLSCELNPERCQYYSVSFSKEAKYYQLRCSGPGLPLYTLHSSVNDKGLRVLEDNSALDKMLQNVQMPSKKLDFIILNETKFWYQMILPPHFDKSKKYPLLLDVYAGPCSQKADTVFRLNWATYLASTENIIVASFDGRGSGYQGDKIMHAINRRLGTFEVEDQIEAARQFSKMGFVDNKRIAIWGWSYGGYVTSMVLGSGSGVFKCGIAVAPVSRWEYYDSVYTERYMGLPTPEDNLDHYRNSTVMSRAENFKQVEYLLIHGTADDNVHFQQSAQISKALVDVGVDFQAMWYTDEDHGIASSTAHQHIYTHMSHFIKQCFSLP
T1 sequence (P43220 24-463): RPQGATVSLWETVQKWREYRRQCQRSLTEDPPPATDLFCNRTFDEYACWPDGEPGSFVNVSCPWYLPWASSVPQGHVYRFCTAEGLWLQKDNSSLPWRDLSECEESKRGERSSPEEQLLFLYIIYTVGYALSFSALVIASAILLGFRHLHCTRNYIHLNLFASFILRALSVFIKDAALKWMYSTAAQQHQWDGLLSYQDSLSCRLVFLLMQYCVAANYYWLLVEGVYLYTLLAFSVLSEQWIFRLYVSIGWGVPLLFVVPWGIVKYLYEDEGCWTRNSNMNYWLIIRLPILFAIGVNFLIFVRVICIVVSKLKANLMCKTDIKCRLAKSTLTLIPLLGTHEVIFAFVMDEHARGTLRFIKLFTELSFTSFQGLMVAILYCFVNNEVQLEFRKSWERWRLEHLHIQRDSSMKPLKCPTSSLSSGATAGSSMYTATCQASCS

Take `CCc1cc(OC)ccc1-c1ccc(CC(NC(=O)[C@H](CC(=O)O)NC(=O)[C@H](CO)NC(=O)[C@@H](NC(=O)C(C)(Cc2ccccc2F)NC(=O)[C@@H](NC(=O)CNC(=O)[C@H](CC(C(F)(F)F)C(F)(F)F)NC(=O)C(C)(C)NC(=O)[C@@H](N)Cc2c[nH]cn2)[C@@H](C)O)[C@H](C)O)C(=O)NC(CCCc2ccccc2F)C(N)=O)cc1` (single isomer, unassigned) [compound 224]: the “% degradation of peptidomimetics in 24 h when incubated with human plasma” value (“% degradation … with human plasma” below) in series [1] is reported as 00%. Also, the half-life at 2 μM (in series [1]; in series [2]; at DPP IV; in series [4]) was over 24 h in each case. For the same compound, the “% degradation of peptidomimetics in 24 h when incubated with simulated gastric fluid” value (“% degradation … with simulated gastric fluid” for short) in series [2] is on record as 00%. The “Human GLP-1 R activity (cAMP release), % activity with respect to control” value at Human GLP-1 receptor (1 nM test compound) worked out at 99 ± 0.06%; at Human GLP-1 receptor (10 nM test compound), 99 ± 0.06%; at Human GLP-1 receptor (100 nM test compound), 99 ± 0.08%; on Human GLP-1 receptor (1 μM test compound), 99 ± 0.10%; on Human GLP-1 receptor (10 μM test compound) it was 99 ± 0.12%. Besides, in series [3], the “half-life (t1/2) when incubated with liver microsomes” value is reported as “(5) h”. Besides, the “% degradation of peptidomimetics in 24 h when incubated with liver microsomes” value (“% degradation … with liver microsomes” for short) in series [3] amounted to 26%. In addition, the “% degradation of peptidomimetics in 24 h when incubated with DPP-IV enzyme” value (from here on “% degradation … with DPP-IV enzyme”) on DPP IV is on record as 00%. Further, the “% degradation of peptidomimetics in 24 h when incubated with simulated intestinal fluid” value (shortened to “% degradation … with simulated intestinal fluid”) in series [4] is 00%.

For `CCc1cc(OC)ccc1-c1ccc(CC(CNC(CCCc2ccccc2)C(N)=O)NC(=O)[C@H](CC(=O)O)NC(=O)[C@H](CO)NC(=O)[C@@H](NC(=O)C(C)(Cc2ccccc2F)NC(=O)[C@@H](NC(=O)CNC(=O)C(CCC#N)NC(=O)C(C)(C)NC(=O)[C@@H](N)Cc2c[nH]cn2)[C@H](C)O)[C@H](C)O)cc1` (single isomer, unassigned) [compound 190], the “% degradation … with human plasma” value in series [1] is reported as 00%. For the same compound, the half-life at 2 μM in series [1] is over 24 h; in series [2], 4 h; in series [3] (pH 7.8, read-out: half-life (t1/2) when incubated with liver microsomes) it was 2 h; on DPP IV it was over 24 h; in series [4] it was over 24 h. The “% degradation … with simulated gastric fluid” value in series [2] is reported as 45%. For the same compound, the “Human GLP-1 R activity (cAMP release), % activity with respect to control” value at Human GLP-1 receptor (1 nM test compound) was determined as 41 ± 0.09%; at Human GLP-1 receptor (10 nM test compound) it was 82 ± 0.07%; on Human GLP-1 receptor (100 nM test compound), 87 ± 0.04%; on Human GLP-1 receptor (1 μM test compound), 95 ± 0.01%; at Human GLP-1 receptor (10 μM test compound), 98 ± 0.08%. The “% degradation … with liver microsomes” value in series [3] worked out at 85%. Moreover, the “% degradation … with DPP-IV enzyme” value at DPP IV is given as 00%. The “% degradation … with simulated intestinal fluid” value in series [4] was 00%.

On to `CCc1cc(OC)ccc1-c1ccc(CC(CNC(CCCc2ccccc2F)C(N)=O)NC[C@H](CC(=O)O)NC(=O)[C@H](CO)NC(=O)[C@@H](NC(=O)C(C)(Cc2ccccc2F)NC(=O)[C@@H](NC(=O)CNC(=O)[C@H](CCC(N)=O)NC(=O)C(C)(C)NC(=O)[C@@H](N)Cc2c[nH]cn2)[C@H](C)O)[C@H](C)O)cc1` (single isomer, unassigned) [compound 203], for which the “% degradation … with human plasma” value in series [1] came to 00%. Further, the half-life at 2 μM (in series [1]; in series [2]; at DPP IV; in series [4]) was over 24 h each time. Further, the “% degradation … with simulated gastric fluid” value in series [2] is 00%. The “Human GLP-1 R activity (cAMP release), % activity with respect to control” value at Human GLP-1 receptor (1 nM test compound) was found to be 86 ± 0.11%; on Human GLP-1 receptor (10 nM test compound), 99 ± 0.09%; on Human GLP-1 receptor (100 nM test compound), 99 ± 0.06%; on Human GLP-1 receptor (1 μM test compound), 99 ± 0.14%; at Human GLP-1 receptor (10 μM test compound), 99 ± 0.19%. In addition, the “half-life (t1/2) when incubated with liver microsomes” value in series [3] is “(5) h”. For the same compound, in series [3], the “% degradation … with liver microsomes” value was 31%. Moreover, at DPP IV, the “% degradation … with DPP-IV enzyme” value is given as 00%. In series [4], the “% degradation … with simulated intestinal fluid” value is reported as 00%.

The values are drawn from patent publication US8883963B2 (Cadila Healthcare Limited, priority 2007, dated 2014).
